Results as given in paper PMC10877416 (Translational Oncology, 2024).
Ends that are not written are not given here. Peptide text beside a SMILES is read from it.

B1: PD-L1(111-127), biotin-(Gly)5 form (peptide)
chain: VYRCMISYGGADYKRIT
HELM: PEPTIDE1{[O=C1N[C@H]2[C@H](CS[C@H]2CCCCC(=O)[*:2])N1].G.G.G.G.G.V.Y.R.[Abu].[Nle].I.S.Y.G.G.A.D.Y.K.R.I.T.[am]}$$$$V2.0
SMILES: CCCC[C@H](NC(=O)[C@H](CC)NC(=O)[C@H](CCCNC(=N)N)NC(=O)[C@H](Cc1ccc(O)cc1)NC(=O)[C@@H](NC(=O)CNC(=O)CNC(=O)CNC(=O)CNC(=O)CNC(=O)CCCC[C@@H]1SC[C@@H]2NC(=O)N[C@@H]21)C(C)C)C(=O)N[C@H](C(=O)N[C@@H](CO)C(=O)N[C@@H](Cc1ccc(O)cc1)C(=O)NCC(=O)NCC(=O)N[C@@H](C)C(=O)N[C@@H](CC(=O)O)C(=O)N[C@@H](Cc1ccc(O)cc1)C(=O)N[C@@H](CCCCN)C(=O)N[C@@H](CCCNC(=N)N)C(=O)N[C@H](C(=O)N[C@H](C(N)=O)[C@@H](C)O)[C@@H](C)CC)[C@@H](C)CC
B2: PD-L1(113-126), biotin-(Gly)5 form (peptide)
chain: RCMISYGGADYKRI
HELM: PEPTIDE1{[O=C1N[C@H]2[C@H](CS[C@H]2CCCCC(=O)[*:2])N1].G.G.G.G.G.R.[Abu].[Nle].I.S.Y.G.G.A.D.Y.K.R.I.[am]}$$$$V2.0
SMILES: CCCC[C@H](NC(=O)[C@H](CC)NC(=O)[C@H](CCCNC(=N)N)NC(=O)CNC(=O)CNC(=O)CNC(=O)CNC(=O)CNC(=O)CCCC[C@@H]1SC[C@@H]2NC(=O)N[C@@H]21)C(=O)N[C@H](C(=O)N[C@@H](CO)C(=O)N[C@@H](Cc1ccc(O)cc1)C(=O)NCC(=O)NCC(=O)N[C@@H](C)C(=O)N[C@@H](CC(=O)O)C(=O)N[C@@H](Cc1ccc(O)cc1)C(=O)N[C@@H](CCCCN)C(=O)N[C@@H](CCCNC(=N)N)C(=O)N[C@H](C(N)=O)[C@@H](C)CC)[C@@H](C)CC
B3: PD-L1(110-128)(V111C-T127C), biotin-(Gly)5 form (peptide)
chain: GCYRCMISYGGADYKRICV
HELM: PEPTIDE1{[O=C1N[C@H]2[C@H](CS[C@H]2CCCCC(=O)[*:2])N1].G.G.G.G.G.G.C.Y.R.[Abu].[Nle].I.S.Y.G.G.A.D.Y.K.R.I.C.V.[am]}$PEPTIDE1,PEPTIDE1,8:R3-24:R3$$$V2.0
SMILES: CCCC[C@@H]1NC(=O)[C@H](CC)NC(=O)[C@H](CCCNC(=N)N)NC(=O)[C@H](Cc2ccc(O)cc2)NC(=O)[C@@H](NC(=O)CNC(=O)CNC(=O)CNC(=O)CNC(=O)CNC(=O)CNC(=O)CCCC[C@@H]2SC[C@@H]3NC(=O)N[C@@H]32)CSSC[C@@H](C(=O)N[C@H](C(N)=O)C(C)C)NC(=O)[C@H]([C@@H](C)CC)NC(=O)[C@H](CCCNC(=N)N)NC(=O)[C@H](CCCCN)NC(=O)[C@H](Cc2ccc(O)cc2)NC(=O)[C@H](CC(=O)O)NC(=O)[C@H](C)NC(=O)CNC(=O)CNC(=O)[C@H](Cc2ccc(O)cc2)NC(=O)[C@H](CO)NC(=O)[C@H]([C@@H](C)CC)NC1=O

Target: programmed cell death 1 (PD-1) (human, UniProt Q15116 25-170)
Sequence (Q15116 25-170): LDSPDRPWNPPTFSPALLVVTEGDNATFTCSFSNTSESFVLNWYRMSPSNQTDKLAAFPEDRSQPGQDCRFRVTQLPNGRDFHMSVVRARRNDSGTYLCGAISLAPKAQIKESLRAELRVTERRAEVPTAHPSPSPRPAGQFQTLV
Assay: SPR; Biacore T200; biotin-(Gly)5-peptides immobilised on an SA sensor chip (~800 RU, L1 ~500 RU); PD-1 injected at 0.31-10 µM (two-fold dilutions); PBS-P running buffer, 30 µl/min, 25°C; 1:1 binding model, at least three titrations
Settings: both partners purified

Molecule | koff | kon
B1 | 0.00179 s⁻¹ | 10.9 M⁻¹ s⁻¹
B2 | 0.000194 s⁻¹ | 24.7 M⁻¹ s⁻¹
B3 | 0.00071 s⁻¹ | 33.1 M⁻¹ s⁻¹

Target: PD-L1 protein
Assay: not given
Settings: Table S6, supplement reference list; ref [34]; read-out: Affinity (KD); cited from earlier work
Source text: Supplement mmc1.docx, table 8: Table S6. […] D - amino acids are marked with a lowercase letter. NB - no binding; ND - no data; JD - no name given by the authors. | column: Affinity (KD) [µM]

Molecule | Kd
SGQYASYHCWCWRDPGRSGGSK [TPP-1] | 0.095 µM

Same assay, conditions: Table S6, supplement reference list; ref [36]; read-out: Affinity (KD); cited from earlier work

Molecule | Kd
CVRARTR [PD-L1Pep-2] | 0.281 µM
CLQKTPKQC [PD-L1Pep-1] | 0.373 µM

Same assay, conditions: Table S6, supplement reference list; ref [38]; read-out: Affinity (KD); cited from earlier work

Molecule | Kd
GQSEHHMRVYSF [OPBP-1] | 0.667 µM

Same assay, conditions: Table S6, supplement reference list; ref [40]; read-out: Affinity (KD); cited from earlier work

Molecule | Kd
GTRLKPLIICVQWPGL [PD-L1ip3] | 33 µM

Same assay, conditions: Table S6, supplement reference list; ref [47]; read-out: Affinity (KD); cited from earlier work

Molecule | Kd
GDWFKAYYDKVAEG [Peptide 4F-8] | 412 µM
SHFSASYDKYAEKF [Peptide 4F-16] | 49.4 µM
DWFKAFYDKINETYNK [Peptide 4F-32] | 0.017 µM
DWIKANYDETAEYNKEAK [Peptide 4F-30] | 419 µM

Tested on: not listed separately
Assay: Solubility in water
Format: physicochemical
Settings: not given
Source text: To increase solubility, its sequence was elongated at the N- and C-terminals by adding hydrophilic amino acids from the protein sequence. […] These modifications were introduced to prevent the oxidation of methionine and cysteine.

Molecule | Solubility in water
CCCC[C@H](NC(=O)[C@H](CCC(=O)O)NC(=O)[C@H](Cc1c[nH]c2ccccc12)NC(=O)[C@H](Cc1ccc(O)cc1)NC(=O)[C@@H](NC(=O)[C@@H](NC(=O)[C@H](CC(C)C)NC(=O)[C@H](C)NC(=O)[C@H](C)NC(=O)[C@H](CC(C)C)NC(=O)[C@H](CC(=O)O)NC(=O)[C@H](CC(C)C)NC(=O)[C@H](CCC(N)=O)NC(=O)[C@H](CCCCN)NC(=O)[C@H](CCC(=O)O)NC(C)=O)[C@@H](C)CC)C(C)C)C(=O)N[C@@H](CCC(=O)O)C(=O)N[C@@H](CC(=O)O)C(=O)N[C@@H](CCCCN)C(=O)N[C@@H](CC(N)=O)C(=O)N[C@H](C(=O)N[C@H](C(=O)N[C@@H](CCC(N)=O)C(=O)N[C@@H](Cc1ccccc1)C(=O)N[C@H](C(N)=O)C(C)C)[C@@H](C)CC)[C@@H](C)CC [Peptide L5] (HELM PEPTIDE1{[ac].E.K.Q.L.D.L.A.A.L.I.V.Y.W.E.[Nle].E.D.K.N.I.I.Q.F.V.[am]}$$$$V2.0) | no positive effect on the solubility
CCCC[C@H](NC(=O)[C@H](CCC(=O)O)NC(=O)[C@H](Cc1c[nH]c2ccccc12)NC(=O)[C@H](Cc1ccc(O)cc1)NC(=O)[C@@H](NC(=O)[C@@H](NC(=O)[C@H](CC(C)C)NC(=O)[C@H](C)NC(C)=O)[C@@H](C)CC)C(C)C)C(=O)N[C@@H](CCC(=O)O)C(=O)N[C@@H](CC(=O)O)C(=O)N[C@@H](CCCCN)C(=O)N[C@@H](CC(N)=O)C(=O)N[C@H](C(=O)N[C@H](C(=O)N[C@@H](CCC(N)=O)C(=O)N[C@@H](Cc1ccccc1)C(=O)N[C@H](C(=O)N[C@@H](Cc1c[nH]cn1)C(=O)NCC(=O)N[C@@H](CCC(=O)O)C(=O)N[C@@H](CCC(=O)O)C(=O)N[C@@H](CC(=O)O)C(N)=O)C(C)C)[C@@H](C)CC)[C@@H](C)CC [Peptide L3] (HELM PEPTIDE1{[ac].A.L.I.V.Y.W.E.[Nle].E.D.K.N.I.I.Q.F.V.H.G.E.E.D.[am]}$$$$V2.0) | no positive effect on the solubility

Target: PD-1 protein
Assay: not given
Settings: Table S5, supplement reference list; NB = no binding; ref [6]; read-out: Affinity (KD); cited from earlier work

Molecule | Kd
KRWWR [WANG-003] | 3.3 µM
RRWQWR [WANG-005] | 5.1 µM
FRWWR [WANG-004] | 1.6 µM

Same assay, conditions: Table S5, supplement reference list; ref [3]; read-out: Affinity (KD); cited from earlier work

Molecule | Kd
LDYVNRRKMYQ [Ar5M_2] | 3.32 µM
FNWDYSWKSERLKEAYDL [Ar5Y_1] | 3.39 µM
GNWDYNSQRAQLYNQ [Ar5Y_4] | 1.38 µM
FNWDYSLEELREKAKYK [Ar5Y_2] | 3.14 µM
LDYDGRLSQ [Ar4_2] | 83.9 µM
GIDYEERWK [Ar4_1] | 28.3 µM
GNADYNSQRAQLYNQ [Ar5Y_4 W3A] | 8.08 µM
GNWAYNSQRAQLYNQ [Ar5Y_4 D4A] | 18.9 µM
WDYD [Ar3_1] | 22.3 µM
TEKDYRHGNIRMKLAYDL [Ar5Y_3] | 3.13 µM
LDYGDKREGQMAE [Ar5M_1] | 21.6 µM
GNWDANSQRAQLYNQ [Ar5Y_4 Y5A] | 20.2 µM
GNWDYNSQAAQLYNQ [Ar5Y_4 R9A] | 21.2 µM
GNWDYNSQRAQLANQ [Ar5Y_4 Y13A] | 10.2 µM

Same assay, conditions: Table S5, supplement reference list; ref [8]; read-out: Affinity (KD); cited from earlier work

Molecule | Kd
CVYRCMISYGGADYKRITC (disulfide (positions not given here)) [ΔDS-II [C110–C128]] | 11.6 µM
CYRCMISYGGADYKRIC (disulfide (positions not given here)) | 17.5 µM

Same assay, conditions: Table S5, supplement reference list; ref [10]; read-out: Affinity (KD); cited from earlier work

Molecule | Kd
HYPFRPHANQAS [CLP001] | 0.534 µM
DYHDPSLPTLRK [CLP004] | 0.544 µM
WHRSYYTWNLNT [CLP002] | 0.366 µM
WHFSYNWRWLPP [CLP003] | 0.117 µM

Same assay, conditions: Table S5, supplement reference list; ref [11]; read-out: Affinity (KD); cited from earlier work

Molecule | Kd
RTMIWYAAAWYKRI [Peptide P2.2] | 55.2 µM
RTMIWYGpAWYKRI [Peptide P2.3] | 129 µM
RTMIWYpPAWYKRI [Peptide P2.1] | 29.2 µM
RCMICYGGADYKRI [Peptide P1.1] | 3.66 µM
RTCITYpGADYCRI [Peptide P1.4] | 474 µM
RCMISYpGADYKRI [Peptide P1.2] | 83 µM

Same assay, conditions: Table S5, supplement reference list; ref [12]; read-out: Affinity (KD); cited from earlier work

Molecule | Kd
VFELRHSKRKDSRTVY [Pep2] | 127 µM
LERHDFGDGRARYEE [Pep10] | 39 µM
KSKAVNRVSQESEM [Pep6] | 66.4 µM
TFKVEDRYGQGQQILD [Pep4] | 22.7 µM
LETWFGKEILVKT [Pep1] | 140 µM
TSEVDNGVGKPQKHS [Pep3] | 81.1 µM
QYRCNGTSSKGSDQAIITLRV [Pep14] | 10.9 µM
LEYWSSGSTTMYGL [Pep9] | 36.4 µM

Same assay, conditions: Table S5, supplement reference list; ref [13]; read-out: Affinity (KD); cited from earlier work

Molecule | Kd
[TMYLerRYpD] [PD-i3] | 102 µM

Same assay, conditions: Table S5, supplement reference list; ref [16]; read-out: Affinity (KD); cited from earlier work

Molecule | Kd
[CKWYRPSEC] [Peptide C8] | 0.64 µM

Same assay, conditions: Table S5, supplement reference list; ref [17]; read-out: Affinity (KD); cited from earlier work

Molecule | Kd
FSGTVTTAGLLF [P-F4] | 0.119 µM

Same assay, conditions: Table S5, supplement reference list; ref [18]; read-out: Affinity (KD); cited from earlier work

Molecule | Kd
SHHHRLSRLKEIANSPTQFWRMVARNTLGNGAKQSLNIEHARL [nABPD1] | 0.0119 µM
SRLKEIANSPTQFWRMVARNTLGNGAKQSLNIEHARL [nABP284] | 11.8 µM

Same assay, conditions: Table S5, supplement reference list; ref [19]; read-out: Affinity (KD); cited from earlier work

Molecule | Kd
RRQWFW [JD2] | 4.38 µM
RRWWRR [JD1] | 4.01 µM

Same assay, conditions: Table S5, supplement reference list; ref [21]; read-out: Affinity (KD); cited from earlier work

Molecule | Kd
CRAMISYGGADYK-(N-Me-Arg)-IC [MN1.4] | 2 µM

Same assay, conditions: Table S5, supplement reference list; ref [22]; read-out: Affinity (KD); cited from earlier work

Molecule | Kd
SGQQRTSADCWEDHGWGSGGSK [PBP] | 17.4 µM
